Literature values as cited in patent US20030139355A1, “Medicine for orthopaedic surgical application and a treating method using thereof” (priority 2001, published 2003).

Experiments:
[1] = tested on: selectins; conditions: in vitro; J. Biol. Chem. 1994
[2] = tested on: ischemia reperfusion disorder in liver; conditions: literature reports

## CC1(C)[C@@H](O[C@H]2O[C@H](C(=O)O)[C@@H](O)[C@H](O)[C@H]2O[C@@H]2O[C@H](C(=O)O)[C@@H](O)[C@H](O)[C@H]2O)CC[C@]2(C)[C@H]3C(=O)C=C4[C@@H]5C[C@@](C)(C(=O)O)CC[C@]5(C)CC[C@@]4(C)[C@]3(C)CC[C@@H]12 [glycyrrhizin]
[1]
  Binding between Sialyl-Lewis X and selectins: prevents binding between Sialyl-Lewis X and selectins
[2]
  Inhibitory effects on ischemia reperfusion disorder in liver: effectively exhibits inhibitory effects
